Source: US20090270477A1, “POLYMORPHS OF A HYDROISOINDOLINE TACHYKININ RECEPTOR ANTAGONIST” (priority 2006, published 2009)

Test: Relative thermodynamic stability of the two anhydrous crystalline forms (enantiotropic pair)
Format: physicochemical
Settings: freebase of compound of structural formula A; Form I and Form II are enantiotropic

## C[C@@H](O[C@H]1CC[C@@H]2CN(C3=CC(=O)CC3)C[C@H]2[C@@H]1c1ccc(F)cc1)c1cc(C(F)(F)F)cc(C(F)(F)F)c1 [Form II]
  temperatures at which the form is thermodynamically more stable: above 72 °C

## C[C@@H](O[C@H]1CC[C@@H]2CN(C3=CC(=O)CC3)C[C@H]2[C@@H]1c1ccc(F)cc1)c1cc(C(F)(F)F)cc(C(F)(F)F)c1 [Form I]
  temperatures at which the form is thermodynamically more stable: below 72 °C
